Source: US20240197756A1, “METHODS OF TREATMENT WITH NEUROACTIVE STEROIDS” (priority 2021, published 2024)
“Also recorded” adds a separate entry of the source. Where two headings read alike, the source gives them in different places.

Legend:
[1] = Example 3 Part A: oral suspension administered at 4 p.m. vs 8 p.m., plasma pharmacokinetics; type: in vivo, human; settings: for AUCinf / Cmax / AUC(0-inf) / Tmax / half-life: human, in vivo; for AUCinf / Cmax / AUC(0-inf) / Tmax: po; for AUC(0-inf): AUCinf
Experimental: Patients with severe major depressive disorder (MDD) aged 18 to 65 years were treated with an oral suspension or tablet of Compound 1 to study the effect of food and time of administration on the pharmacokinetics, as well as the safety and tolerability of these formulations.
Part A is an open-label, non-randomized, fixed-sequence crossover design to evaluate Compound 1 at 2 different administration times (4 p.m., approximately 4 hours after lunch and 2 hours prior to dinner, and at 8 p.m., approximately 4 hours after dinner). 16 participants were administered an oral suspension of Compound 1.
Preliminary pharmacokinetics data from Part A, where 45 mg and 60 mg of oral suspension were administered (Cohort 1), and Part C, where 40 mg (2×20 mg), 60 mg (3×20 mg) and 80 mg (4×20 mg) of the tablet formulation were administered, have been analyzed and are summarized below.

[2] = system: extrasynaptic form of GABAA receptors; assay: PAM selectivity for extrasynaptic vs synaptic GABAA receptors
[3] = Safety and tolerability in the multiple escalating dose study in healthy subjects; type: in vivo, human
Experimental: Adverse events (AEs) were monitored throughout the duration of the study.
To monitor for possible AEs, vital signs, hematology and clinical chemistry laboratory parameters, ECG readings, neurological examination findings, and EEG parameters and abnormal findings were recorded at each visit.

[4] = system: GABAA receptors in the brain; assay: Quantitative EEG (qEEG) alpha- and beta-band power in Phase 1 MAD trial; type: in vivo, human
Experimental: Pharmacodynamic (PD) effects of first dose and steady state Compound 1 concentrations on wake electroencephalograms (EEGs) were studied. Standard 16 channel continuous EEGs were obtained at the following time points: Day-1, Day 1 (1 hour after dosing), and Day 14 (1 hour after dosing).
The effect of Compound 1 on the quantitative EEG (qEEG) was measured in a Phase 1 multiple ascending dose (MAD) trial to understand the pharmacodynamic effect of Compound 1 on GABAA receptor activation. The frequency and amplitude of the detected electrical signals in response to treatment with a brain-active compound provide insights into brain function and brain state (e.g., awake, deep sleep, etc.) or pharmacological response. For instance, changes in power in the beta-band frequency can be used as a pharmacodynamic biomarker of GABAA receptor activation in response to a brain active compound.
EEG was recorded for 5 minutes in quiet eyes open condition using a standard 10-20 EEG electrode placement system at pre-dose and 1, 2, 4, 8 and 24 hours after dosing. Each lead was referenced to the Oz electrode. Artifacts were removed via visual inspections. EEG spectra were computed using Fourier transformation. The alpha-band frequency was set to 8.5-12.5 Hz, the beta-band frequency was set to 12.5 to 30 Hz. The ratio between each post-dose value and the associated pre-dose value for each electrode was used to calculate the fold EEG change in each frequency band so that a ratio of 1 represents no change from baseline. The mean of the central 9 electrodes was used for each subject and timepoint for final analysis.

[5] = Multiple escalating dose study, plasma pharmacokinetics of oral suspension (Cohorts 1-3); type: in vivo, human
Experimental: Healthy subjects aged 18 to 55 years were treated with an oral suspension of Compound 1 to study the safety, tolerability, pharmacokinetics and pharmacodynamics of Compound 1 in healthy subjects.
The study was a randomized, double-blind, placebo-controlled multiple escalating dose study comprised of 3 cohorts that each received an oral suspension. Each cohort consisted of two groups: one group treated with Compound 1 and another treated with placebo. In each cohort, the ratio of Compound 1-treated subjects to placebo-treated subjects was 3:1.
The Compound 1-treated subjects of Cohort 1 were treated with 15.0 mg of Compound 1 once per day (QD). The Compound 1-treated subjects of Cohort 2 were treated with 30.0 mg of Compound 1 QD. The Compound 1-treated subjects of Cohort 3 were treated with 60.0 mg of Compound 1 QD.
Patients in each cohort were treated with Compound 1 for 14 consecutive days, unless dosing was halted by the Safety Review Committee (SRC). The dosing of subjects in each of the cohorts was staggered with the decision to dose escalate based on SRC review of a minimum of 14 days of observation of safety and tolerability data and review of the available plasma PK data from the preceding cohort(s). Thus, dose escalation was predicated on tolerability of the prior cohorts.
Compound 1 was administered under fasted conditions (no food or drink, except water, for at least 10 hours prior to dosing). Immediately after administration of Compound 1, the subject was be administered 240 mL water. No additional fluid intake was allowed until 1 hour after Compound 1 administration.
Cohort 1 subjects received a single 15.0 mg dose of a Compound 1 suspension on the morning of Days 1-14. Cohort 2 subjects received a single 30.0 mg dose of a Compound 1 suspension on the morning of Days 1-14. Cohort 3 subjects received a single 60.0 mg dose of a Compound 1 suspension on the morning of Days 1-14. For all cohorts, the last treatment was administered on the morning of Day 14.
Data were obtained from the blood plasma samples collected from each cohort according to the schedule provided.
Plasma samples were analyzed to determine Compound 1 concentrations using a validated assay method. Pharmacokinetic variables (including but not limited to Cmax, Tmax and AUC(0-last)) were calculated using non-compartmental analysis. PK parameters for Compound 1 were derived from the plasma concentration data using non-compartmental analysis with Phoenix™ WinNonlin® v 8.0 (Pharsight Corporation, USA).
Blood (Cohorts 1-3): For each cohort, blood samples were collected on Days 1, 2, 3, 4, 5, 6 and 14 at the following time points: Day 1 at pre-dose (0 hour), 0.25, 0.5, 0.75, 1, 1.5, 2, 2.5, 3, 4, 6, 8, 12, 16 h post-dose; Day 2 at pre-dose (24 hours), Day 3 at pre-dose (48 hours), Day 4 at pre-dose (72 hours), Day 5 at pre-dose (96 hours), Day 6 at pre-dose (120 hours); Day 14 at pre-dose 0.25, 0.5, 0.75, 1, 1.5, 2, 2.5, 3, 4, 6, 8, 12, 16, 24, 36, 48, and 72 hours. Trough level blood samples were collected on Days 2, 3, 4, 5, 6 and 14, prior to the morning dose administrations.
Descriptive statistics were calculated for plasma and urine PK parameter and concentration data and summarized by study day and time point. Arithmetic means, coefficient of variation (CV), standard deviation, median, minimum, and maximum values, and number of observations were calculated for all PK parameters and trough concentration data. Except for Tmax, the geometric mean, geometric standard deviation, and geometric CV were provided for all PK parameter and concentration data.

[6] = oral suspension 45 mg and 60 mg
[7] = Cohorts 1-3, 15-60 mg QD for 14 days
[8] = 30 mg, one hour post-dose on Day 1, healthy volunteers
[9] = 60 mg, one hour post-dose on Day 1, healthy volunteers
[10] = healthy volunteers, days 1 and 14
[11] = Cohort 1 (15.0 mg QD), Day 14 steady state, Geo Mean
[12] = Cohort 1 (15.0 mg QD), Day 14 steady state, Mean
[13] = Cohort 1 (15.0 mg QD), Day 14 steady state, Median
[14] = Cohort 2 (30.0 mg QD), Day 14 steady state, Geo Mean
[15] = Cohort 2 (30.0 mg QD), Day 14 steady state, Mean
[16] = Cohort 3 (60.0 mg QD), Day 14 steady state, Geo Mean

## COC[C@@]1(O)CC[C@@]2(C)[C@@H](CC[C@@H]3[C@@H]2CC[C@]2(C)[C@@H](C(=O)Cn4ccnc4)CC[C@@H]32)C1 [Compound 1, 3α-Hydroxy-3β-methoxymethyl-21-(1′-imidazolyl)-5α-pregnan-20-one]
[1]; 45 mg
  AUCinf: 1880 ng·h/mL
  Cmax: 157 ng/mL
  AUC(0-inf): 1800 ng·h/mL
  Tmax: 1.5 h
[1]; 45 mg, Cmax
  Cmax: 207 ng/mL
[1]; 60 mg
  AUCinf: 2930 ng·h/mL
  Cmax: 249 ng/mL
  AUC(0-inf): 2800 ng·h/mL
  Tmax: 1.5 h
[1]; 60 mg, Cmax
  Cmax: 282 ng/mL
[1]; oral suspension 45 mg and 60 mg, 4 p.m. and 8 p.m., range, read-out: Mean t1/2
  half-life: 11.1 to 12.6 h
[1]; oral suspension 60 mg 4 PM (4 h after lunch, 2 h before dinner), N = 15, Mean, read-out: t1/2 (converted)
  half-life: 12 h
[1]; oral suspension 45 mg 4 PM (4 h after lunch, 2 h before dinner), N = 16, Mean
  t1/2: 12.6 h
[1]; oral suspension 45 mg 8 PM (4 h after dinner), N = 15, Mean
  t1/2: 11.3 h
[1]; [6]
  Cmax at 8 p.m. as compared to 4 p.m.: reduced
  tmax at 8 p.m. as compared to 4 p.m.: delayed
[1]; oral suspension 45 mg and 60 mg, 4 p.m. vs 8 p.m.
  AUCinf between the 2 administration times: comparable
[1]; oral suspension 60 mg 8 PM (4 h after dinner), N = 15, Mean
  t1/2: 11.1 h
[1]; suspension at 4 p.m. or 8 p.m.
  first post-dose timepoint with appearance of concentrations: 0.25 h
  last evaluated timepoint at which concentrations remained detectable: 72 h
[1]; within the first 2 to 3 hours, 45 mg and 60 mg
  mean concentrations following administration at 4 p.m. as compared to 8 p.m.: higher
[2]
  selectivity as PAM of the extrasynaptic form of GABAA receptors compared to the synaptic form: approximately 10 fold
[3]; [7]
  Serious Adverse Events: no Serious Adverse Events
  vital sign, ECG, or lab abnormalities: no clinically relevant vital sign, ECG, or lab abnormalities
[3]; MAD study, after a dose of 60 mg, beta power increase up to 2.8-fold
  maximum tolerated dose and serious adverse events: without achieving a maximum tolerated dose (MTD) or demonstrating any serious adverse events (SAEs)
[4]; 30 mg and 60 mg QD
  effects on the qEEG alpha and beta power at Day 14: sustained
[4]; [8]
  average increase in qEEG alpha power compared to baseline: approximately 1.5 fold
  average increase in qEEG beta power compared to baseline: ~1.6 fold
[4]; [9]
  increase in qEEG alpha power compared to baseline: 2.6 fold
  increase in qEEG beta power compared to baseline: 2.8 fold
[4]; MAD study, up to 60 mg
  increases in beta power: up to 2.8 fold
[4]; [10]
  power of the alpha-band frequency (qEEG): marked increases; also recorded: markedly increase
  power of the beta-band frequency (qEEG): marked increases; also recorded: markedly increase
[5]; Cohort 1 (15 mg QD) and Cohort 2 (30 mg QD)
  accumulation factor of the dosing interval (ratio of AUCDay14/AUCDay1): approximately 1.25
[5]; [11]
  CLss/F: 30.497 L/h
  t1/2: 14.613 h
[5]; [12]
  CLss/F: 31.415 L/h
  t1/2: 14.772 h
[5]; [13]
  AUCinf: 595.2 ng·h/mL
  CLss/F: 30.41 L/h
[5]; [14]
  CLss/F: 30.178 L/h
  t1/2: 12.647 h
[5]; [15]
  CLss/F: 30.949 L/h
  t1/2: 12.701 h
[5]; Cohort 2 (30.0 mg QD), Day 14 steady state, Median
  CLss/F: 30.12 L/h
[5]; Cohort 3 (60 mg QD)
  accumulation factor of the dosing interval (ratio of AUCDay14/AUCDay1): 0.89
[5]; [16]
  CLss/F: 30.398 L/h
  t1/2: 12.164 h
[5]; Cohort 3 (60.0 mg QD), Day 14 steady state, Mean
  CLss/F: 32.142 L/h
[5]; Cohort 3 (60.0 mg QD), Day 14 steady state, Median
  CLss/F: 28.45 L/h
[5]; human, in vivo, 60 mg
  AUC0-tau: 2356.80 ng·h/mL
  steady state clearance: approximately 31 L/hour
[5]; in vivo, po
  absorption: rapid absorption
